Assay [1] relates to collagen in cardiovascular tissues. As to the kind of experiment: Mass of collagen in cardiovascular tissues after treatment. Format: in vivo. From the text:
(§1) Cardiovascular risk correlates more closely with the systolic and the pulse pressure than with the diastolic pressure. In diabetic patients, the cardiovascular risk profile of diabetic patients is strongly correlated to duration of diabetes, glycemic control and blood pressure. Structural matrix proteins contribute to the function of vessels and the heart, and changes in the physical behavior of cardiovascular walls are believed to be important determinants of circulatory function. In elderly individuals, the loss of compliance in the aorta leads to isolated systolic hypertension, which in turn expands the arterial wall and thereby diminishes the dynamic range of elasticity. Loss of compliance also results in the development of left ventricular hypertrophy.

Another assay deals with TGFbeta. As to the kind of experiment: In situ hybridization studies, TGFbeta expression. It is filed as in vivo.
Description: as §1

The subject of another assay is Type IV collagen. The experiment in a line: In situ hybridization studies, Type IV collagen expression. It is filed as in vivo.
Description: as §1

A short description of assay [2]: In vivo studies of vascular stiffening. As to conditions: in vivo studies in rodents, canines and in primates.
Description: as §1

A short description of assay [3]: Dog model for diabetes, ventricular elasticity. It is filed as in vivo.
Description: as §1

Another assay in a line: Phase IIa clinical trial. It is filed as in vivo, human. The text has this: When the heart pumps blood into the vascular system, the ability of the arteries to expand helps to push blood through the body. When arteries become stiff, as they do in the natural process of aging, the ability of the arteries to expand is diminished and also has consequences for the heart. The heart has to work harder to pump the blood into the stiff arteries, and eventually hypertrophies (enlarges in size) to accomplish this. A hypertrophied heart is an inefficient pump, and is one of the disorders that leads to congestive heart failure. […] The potential clinical benefit of this is to lessen the effort that the heart must expend to push blood throughout the body. The effect is also believed to contribute to preventing hypertrophy and subsequent inefficiency of the heart, which inefficiency would contribute to congestive heart failure.
Atherosclerosis is a disease that involves deposition of blood lipids in plaque in the arteries throughout the body. In coronary arteries, accumulation of plaque progressively leads to reduced coronary flow, with occlusion of the arteries causing focal death of cardiac tissue (myocardial infarction, heart attack). If the amount of tissue that dies is large enough, death ensures. […] Reducing local deposits of plaque should eventually lessen the risk of myocardial infarction and death due to heart attacks.
Pulse pressure is the difference between systolic and diastolic blood pressure. In a young human, systolic pressure is typically 120 mm Hg and diastolic pressure is 80 mm Hg, resulting in a pulse pressure of 40 mm Hg. With age, in many individuals pulse pressure increases, largely due to the increase in systolic pressure that results from stiff vessel disease. In individuals with pulse pressure greater than 60 mm Hg there is an increased risk of death from cardiovascular morbidities. […] This decrease in pulse pressure was believed to be due primarily to the effect of the agent on lowering the systolic blood pressure.

Counter-ions that a name gives are not always drawn.

Here are results for 1 compound from US20030004194A1, “Method for treating fibrotic diseases or other indications VI” (Alteon, Inc., priority 2001, published 2003).

As for `Cc1sc[n+](CC(=O)c2ccccc2)c1C` [3-[2-phenyl-2-oxoethyl]-4,5-dimethyl-thiazolium salt], the “mass of collagen in cardiovascular tissues” value in assay [1] is “reduction in the mass of collagen”. In addition, the “expression of TGFbeta” value with TGFbeta is recorded as “reduces the expression”. For the same compound, the “expression of Type IV collagen” value in the assay with Type IV collagen is “reduces the expression”. Also, the vascular stiffening entry in assay [2] was “substantially ameliorating vascular stiffening”. Moreover, in assay [3], the “end diastolic pressure (indicator of ventricular elasticity)” value was “returned to a value at about the mid-point between the disease impaired value and the value for control dogs”; the “end diastolic volume (indicator of ventricular elasticity)” value is “returned to a value at about the mid-point between the disease impaired value and the value for control dogs”. For the same compound, the “stiffness of arteries, as measured by the ratio of stroke volume (ml) to pulse pressure (mm Hg)” value in the assay “Phase IIa clinical trial” (Phase IIa clinical trial) was “showed an ability to reverse the stiffness of arteries”. In addition, the “amount of circulating triglycerides (lipids)” value in the assay “Phase IIa clinical trial” (Phase IIa trial) is reported as “increased the amount of circulating triglycerides”. Moreover, in the assay “Phase IIa clinical trial” (Phase IIa trial, elderly patients with pulse pressures greater than 60 mm Hg, statistically significant), the pulse pressure result is on record as “reduced pulse pressure”.
